Reference: patent US8124360B2, “Use of a T1R2 nucleic acid sequence to identify tastants” (Givaudan S.A., priority 2006, dated 2012)
Residues, ends and D or L forms follow the SMILES beside them.

What was measured:
T1R3 monomer = molecular target: T1, T1R3 monomer (Homo sapiens, UniProt Q7RTX0); assay: Fluo-4 calcium assay, HEK293T/G16gust44 cells transiently transfected with T1R3 monomer; assay type: cell-based; details: 50 μM perillartine, mean of six replicates
T1 construct: expressed in transfected cells; host or cells: HEK293T cells stably expressing G16gust44
T1 sequence (Q7RTX0 21-852): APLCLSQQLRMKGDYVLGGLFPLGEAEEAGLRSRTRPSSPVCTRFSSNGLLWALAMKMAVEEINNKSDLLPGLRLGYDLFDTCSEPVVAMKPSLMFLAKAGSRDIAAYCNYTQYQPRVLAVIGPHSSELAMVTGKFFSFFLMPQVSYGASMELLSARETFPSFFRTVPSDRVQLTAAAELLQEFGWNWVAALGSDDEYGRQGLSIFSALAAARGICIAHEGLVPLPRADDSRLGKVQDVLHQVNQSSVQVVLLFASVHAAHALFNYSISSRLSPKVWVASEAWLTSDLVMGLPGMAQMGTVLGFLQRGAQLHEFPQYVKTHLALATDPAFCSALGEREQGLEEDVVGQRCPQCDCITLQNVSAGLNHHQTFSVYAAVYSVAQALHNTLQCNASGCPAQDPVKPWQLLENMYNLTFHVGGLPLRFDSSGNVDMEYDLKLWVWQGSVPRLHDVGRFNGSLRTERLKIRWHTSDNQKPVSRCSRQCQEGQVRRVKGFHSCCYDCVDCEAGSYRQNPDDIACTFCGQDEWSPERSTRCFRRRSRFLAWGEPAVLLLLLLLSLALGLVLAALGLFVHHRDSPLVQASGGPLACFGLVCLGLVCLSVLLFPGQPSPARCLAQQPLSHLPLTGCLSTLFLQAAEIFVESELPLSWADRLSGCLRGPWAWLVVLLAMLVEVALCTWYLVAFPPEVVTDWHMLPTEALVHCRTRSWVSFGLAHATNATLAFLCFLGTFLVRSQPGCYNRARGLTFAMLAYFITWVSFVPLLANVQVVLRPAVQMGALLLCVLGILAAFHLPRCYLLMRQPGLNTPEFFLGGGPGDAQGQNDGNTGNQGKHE
From the text: (§1) All examples use the human receptors.
(§2) HEK293 cells stably expressing G alpha 16-gustducin 44 and transfected as described in example 2, 3 or 4 were used as host cells.
(§3) To form a T1R2 vector construct, cDNA fragments containing the entire protein coding sequences for human T1R2 and T1R3 were isolated from a human fungiform cDNA library, fully sequenced and then subcloned into pcDNA3.1 (Invitrogen).

[1] = test system: cells expressing G16gust44 only; assay: Calcium flux assay (FLIPR), non-transfected cells expressing G16gust44 only; assay type: cell-based; details: 50 μM perillartine
Description: (§4) For results, see table below. The signal average of the experiment is given, as well as the standard deviation (STD) in RFU. Two clones were analysed. Non-transfected cells expressing G16gust44 only serve as a general negative control.

T1R2 monomer [2] = molecular target: T2, T1R2 monomer (Homo sapiens, UniProt Q8TE23); assay: Fluo-4 calcium assay, HEK293T/G16gust44 cells transiently transfected with T1R2 monomer; assay type: cell-based
T2 construct: expressed in transfected cells; host or cells: HEK293T cells stably expressing G16gust44
T2 sequence (Q8TE23 20-839): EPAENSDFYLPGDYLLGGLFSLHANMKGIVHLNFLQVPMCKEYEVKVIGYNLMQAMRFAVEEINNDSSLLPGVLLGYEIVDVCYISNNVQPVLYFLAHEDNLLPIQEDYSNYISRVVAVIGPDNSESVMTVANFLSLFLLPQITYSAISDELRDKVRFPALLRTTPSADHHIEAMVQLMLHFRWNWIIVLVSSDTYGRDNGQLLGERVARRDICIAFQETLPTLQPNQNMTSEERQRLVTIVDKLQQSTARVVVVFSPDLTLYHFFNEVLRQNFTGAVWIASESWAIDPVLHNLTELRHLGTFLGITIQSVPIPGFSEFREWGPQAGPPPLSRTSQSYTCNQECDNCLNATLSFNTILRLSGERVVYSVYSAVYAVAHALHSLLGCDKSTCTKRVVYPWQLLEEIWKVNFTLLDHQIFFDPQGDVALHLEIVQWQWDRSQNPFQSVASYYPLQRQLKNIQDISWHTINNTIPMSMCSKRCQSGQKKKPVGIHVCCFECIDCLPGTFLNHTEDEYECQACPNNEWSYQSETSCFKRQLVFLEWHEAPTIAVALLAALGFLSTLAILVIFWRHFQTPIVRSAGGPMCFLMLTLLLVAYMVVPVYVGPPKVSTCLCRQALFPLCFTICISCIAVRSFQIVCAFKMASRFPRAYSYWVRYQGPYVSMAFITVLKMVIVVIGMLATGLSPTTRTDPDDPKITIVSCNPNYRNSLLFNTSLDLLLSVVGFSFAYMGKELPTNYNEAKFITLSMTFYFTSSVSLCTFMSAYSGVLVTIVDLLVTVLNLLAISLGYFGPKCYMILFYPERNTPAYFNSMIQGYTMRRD
From the text: as §1, §2, §3

[3] = test system: mock transfected cells expressing only the G16gust44 chimeric G-protein; assay: Fluo-4 calcium assay, mock transfected cells expressing only G16gust44 (negative control cells); assay type: cell-based, human; details: 50 μM perillartine, mean of six replicates
From the text: as §2

T1R2 monomer [4] = molecular target: T2, T1R2 monomer; assay: Calcium flux assay (FLIPR), clonal cell lines stably expressing T1R2 and G16gust44; assay type: cell-based; details: 50 μM perillartine
Description: as §1
A human T1R2/pcDNA4-Zeocin construct was linearized by digesting 5 ug with Pvu II and then purified using the Wizard DNA Clean-Up System (Promega). The DNA was transfected using the Lipofectamine 2000 reagent into cells that already stably express the G16gust44 G-protein (formed as described in WO 2004/055048).
as §4

T1R2/T1R3 dimer = molecular target: T3, T1R2/T1R3 dimer (Homo sapiens, UniProt Q7RTX0+Q8TE23); assay: Fluo-4 calcium assay, HEK293T/G16gust44 cells transiently transfected with T1R2 and T1R3; assay type: cell-based
T3 construct: expressed in transfected cells; host or cells: HEK293T cells stably expressing G16gust44
T3 sequence (Q8TE23 20-839): T2 sequence (Q8TE23 20-839)
T3 sequence (Q7RTX0 21-852): T1 sequence (Q7RTX0 21-852)
From the text: as §1, §2, §3

[5] = 50 μM perillartine, mean of six replicates

Row | SMILES | calcium signal compared with negative controls (mock transfected cells) (T1R2 monomer [2]) | calcium signal intensity (T1R2/T1R3 dimer) | also measured
1 | C=C(C)[C@@H]1CC=C(/C=N/O)CC1 [perillartine] | – | – | SIGNAL AVERAGE (net increase in fluorescence over baseline) (T1R3 monomer): 165.6 RFU; Signal average [1]: 368.71 RFU; SIGNAL AVERAGE (net increase in fluorescence over baseline) (T1R2 monomer [2]; [5]): 944.9 RFU; SIGNAL AVERAGE (net increase in fluorescence over baseline) [3]: 353.5 RFU; Signal average (T1R2 monomer [4]; T1R2/G16gust44 CLONE 2): 4336.25 RFU; Signal average (T1R2 monomer [4]; T1R2/G16gust44 CLONE 4): 5288.47 RFU; perillartine-dependent signal relative to negative control cells expressing only G16gust44 (T1R2 monomer [4]; clonal cell lines stably expressing T1R2 monomer): at least 10 fold; SIGNAL AVERAGE (net increase in fluorescence over baseline) (T1R2/T1R3 dimer; [5]): 1279.6 RFU
2 | OC[C@H]1O[C@H](O[C@]2(CCl)O[C@H](CCl)[C@@H](O)[C@@H]2O)[C@H](O)[C@@H](O)[C@H]1Cl [sucralose] | not significantly above the signals observed for the negative controls | strong signals comparable to the signal intensity of perillartine | –
3 | C=C1C[C@@]23CC[C@H]4[C@@](C)(CCC[C@@]4(C)C(=O)O[C@@H]4O[C@H](CO)[C@@H](O)[C@H](O)[C@H]4O)[C@@H]2CC[C@]1(O[C@@H]1O[C@H](CO)[C@@H](O)[C@H](O)[C@H]1O[C@@H]1O[C@H](CO)[C@@H](O)[C@H](O)[C@H]1O)C3 [stevioside] | not significantly above the signals observed for the negative controls | strong signals comparable to the signal intensity of perillartine | –
4 | N[C@H](Cc1c[nH]c2ccccc12)C(=O)O [D-tryptophan] | not significantly above the signals observed for the negative controls | strong signals comparable to the signal intensity of perillartine | –
5 | COC(=O)[C@H](Cc1ccccc1)NC(=O)[C@@H](N)CC(=O)O [aspartame] (H-Asp-Phe-OMe) | not significantly above the signals observed for the negative controls | strong signals comparable to the signal intensity of perillartine | –
